Assay results taken from patent US11040949B2, “Compounds affecting pigment production and methods for treatment of bacterial diseases” (Versitech Limited, priority 2017, dated 2021).
In brackets after ≈: the same amount, converted by molar mass.

Columns and labels:
S. aureus USA300 = assay: In vitro staphyloxanthin production inhibition by NP-16 analogues; assay type: cell-based, Staphylococcus aureus; conditions: S. aureus USA300, methanol extract OD 450 nm, 300 nM to 700 nM
Description: Evaluation of NP-16 analogues in Staphyloxanthin production
The in vitro pigment inhibition studies were performed by S. aureus USA300 cultured in BHI with or without the presence of inhibitor compounds at 37° C. and 250 rpm for 36-48 hours. The bacteria were washed twice with PBS prior to the staphyloxanthin purification with methanol. The OD of the extracts were monitor at 450 nm using DTX880 multi-plate reader spectrophotometer (Beckman). The concentration range tested for the compounds were between 300 nM to 700 nM, and control groups were added with equal volume of DMSO.
The cytotoxicity of NP-16 and some of its analogues was tested against Raw 264.7 cells, and the cell tolerance of each compounds were documented in Table 3. Along with the in vitro staphyloxanthin production of the NP-16 analogues were being tested, the compounds can exert staphyloxanthin production inhibition. The staphyloxanthin from the overnight-cultured bacteria were extracted with methanol and quantified in via spectrophotometry. The results were presented in relative ratio to NP-16 in both the inhibition ratio as well as the TC50 (concentration for decreasing cell viability by 50%) in Table 3 (sample names correspond to those listed in Table 1).

[1] = Solubility in simulated gastric and intestinal fluids; assay type: physicochemical
Text: The following table (Table 4) illustrates the solubility of two different compounds, NP16-XL-016 (hereinafter as “IM032”) and NP16-XL-061 (hereinafter as “IM032-C”), in two solutions with different pH values simulating the pH of gastric juice and human intestinal fluid using HCl and phosphate buffer respectively.

[2] = Solubility in commonly used solvents for oral administration; assay type: physicochemical

Row | SMILES | Relative ratio to NP16 based on inhibition ratio (S. aureus USA300) | also measured
1 | Cc1ccc(/C=C/C(=O)Nc2ccc(S(=O)(=O)N3CCCCC3)cc2)cc1 [NP16-XL-017, 3-(4-methylphenyl)-N-[4-(1-piperidine-1-sulfonyl)phenyl]-acrylamide] | 0.09 | 
2 | N#Cc1ccc(-c2cc(C(=O)Nc3ccc(S(=O)(=O)N4CCCCC4)cc3)no2)cc1 [NP16-XL-059, 4-[2-(4-cyano-phenyl)-1,5-oxazole]-N-[4-(1-piperidine-1-sulfonyl)phenyl]-amide] | 0.06 | 
3 | CC(=O)Oc1ccccc1/C=C/C(=O)Nc1ccc(S(=O)(=O)N2CCCCC2)cc1 [NP16-XL-013, 3-(6-acetoxyl-phenyl)-N-[4-(1-piperidine-1-sulfonyl)phenyl]-acrylamide] | 0.28 | 
4 | O=C(/C=C/c1ccccc1Br)Nc1ccc(S(=O)(=O)N(C(=O)/C=C/c2ccccc2Br)c2ccccc2)cc1 [NP16-XL-039, 3-(6-bromophenyl)-N-{[4-(N-phenyl-3-6-bromophenyl-prop-2-enamido)-sulfonyl]phenyl}-acrylamide] | 3.23 | 
5 | O=C(/C=C/c1ccc(Br)cc1)Nc1ccc(S(=O)(=O)N2CCc3ccccc3C2)cc1 [NP16-XL-031, 3-(4-bromophenyl)-N-[4-(3,4-dihydro-1H-isoquinoline-2-sulfonyl)phenyl]-acrylamide] | 0.23 | 
6 | O=C(/C=C/c1c(F)cccc1F)Nc1ccc(S(=O)(=O)Nc2ccccc2)cc1 [NP16-XL-040, 3-(2,6-difluoro-phenyl)-N-[(4-phenylsulfamoyl)-phenyl]acrylamide] | 2.51 | 
7 | CN1CCN(S(=O)(=O)c2ccc(NC(=O)/C=C/c3c(F)cccc3F)cc2)CC1 [NP16-XL-053, 3-(2,6-difluoro-phenyl)-N-[4-(4-methyl-1,4-piperazine-1-sulfonyl)phenyl]-acrylamide] | 1.26 | 
8 | O=C(/C=C/c1cccc(Br)c1)Nc1ccc(S(=O)(=O)N2CCCCC2)cc1 [NP16-XL-015, 3-(5-bromophenyl)-N-[4-(1-piperidine-1-sulfonyl)phenyl]-acrylamide] | 1.18 | 
9 | O=C(/C=C/c1ccccc1Br)Nc1ccc(C(=O)Nc2ccccc2)cc1 [NP16-XL-048, 3-(6-bromphenyl)-N-[(4-phenylamine-carbonyl)phenyl]-acrylamide] | 0.23 | 
10 | O=C(/C=C/c1ccccn1)Nc1ccc(S(=O)(=O)Nc2ccccc2)cc1 [NP16-XL-044, 3-(pyridin-2-yl)-N-[(4-phenyl-sulfamoyl)phenyl]-acrylamide] | 2.47 | 
11 | Cc1ccccc1/C=C/C(=O)Nc1ccc(S(=O)(=O)N2CCCCC2)cc1 [NP16-XL-018, 3-(6-methylphenyl)-N-[4-(1-piperidine-1-sulfonyl)phenyl]-acrylamide] | 2.48 | 
12 | O=C(/C=C/c1ccccc1F)Nc1ccc(S(=O)(=O)Nc2ccccc2)cc1 [NP16-XL-041, 3-(6-fluorophenyl)-N-[(4-phenyl-sulfamoyl)phenyl]-acrylamide] | 3.17 | 
13 | N#Cc1ccccc1/C=C/C(=O)Nc1ccc(S(=O)(=O)N2CCCCC2)cc1 [NP16-XL-047, 3-(6-cyanophenyl)-N-[4-(1-piperidine-1-sulfonyl)phenyl]-acrylamide] | 3.18 | 
14 | CC(=O)Oc1cccc(/C=C/C(=O)Nc2ccc(S(=O)(=O)N3CCCCC3)cc2)c1 [NP16-XL-012, 3-(5-acetoxyl-phenyl)-N-[4-(1-piperidine-1-sulfonyl)phenyl]-acrylamide] | 1.16 | 
15 | O=C(Nc1ccc(S(=O)(=O)N2CCCCC2)cc1)c1ncoc1-c1ccccc1 [NP16-XL-057, 4-(5-phenyl-1,3-oxazole)-N-[4-(1-piperidine-1-sulfonyl)phenyl]-amide] | 0.14 | 
16 | N#Cc1ccccc1/C=C/C(=O)Nc1ccc(C(=O)Nc2ccccc2)cc1 [NP16-XL-049, 3-(6-cyanophenyl)-N-[(4-phenylamine-carbonyl)phenyl]-acryiamide] | 0.21 | 
17 | O=C(/C=C/c1ccccc1)Nc1ccc(S(=O)(=O)Nc2ccccc2)cc1 [NP16-XL-037, 3-phenyl-N-[(4-phenylsulfamoyl)-phenyl]acrylamide] | 3.02 | 

Row | SMILES | Relative ratio to NP16 based on inhibition ratio (S. aureus USA300) | also measured
18 | O=C(/C=C/c1ccc(Br)cc1)Nc1ccc(S(=O)(=O)N2CCCc3ccccc32)cc1 [NP16-XL-029, 3-(4-bromophenyl)-N-[4-(1,2,3,4--tetra-hydroquinoline-1-sulfonyl)phenyl]-acrylamide] | 0.53 | 
19 | N#Cc1ccccc1/C=C/C(=O)Nc1ccc(S(=O)(=O)Nc2ccccc2)cc1 [NP16-XL-043, 3-(6-cyanophenyl)-N-[(4-phenyl-sulfamoyl)phenyl]-acrylamide] | 3.23 | 
20 | O=C(/C=C/c1ccccc1Cl)Nc1ccc(S(=O)(=O)N2CCCCC2)cc1 [NP16-XL-061, 3-(6-chlorophenyl)-N-[4-(1-piperidine-1-sulfonyl)phenyl]-acrylamide] |  | Solubility in pH 2 (0.1N HCl + 0.1% Tween 80)-simulating human stomach ([1]; pH 2): <LOQ; solubility ([1]; pH 7.4, aqueous with cosolvent or surfactant or cyclodextrin, read-out: Solubility in pH 7.4 (KH2PO4 + 0.1% Tween 80)-simulating human intestine): 0.0856 µg/mL; solubility ([2]; 1:1 Labrasol ALF/PEG300, organic solvent or mixture): 6340 µg/mL (≈ 15.7 mM); solubility ([2]; 1:1 Labrasol ALF/PEG400, organic solvent or mixture): 7600 µg/mL (≈ 18.8 mM); solubility ([2]; Labrasol ALF, oil or lipid): 6080 µg/mL (≈ 15 mM); solubility ([2]; PEG300, organic solvent or mixture): 7150 µg/mL (≈ 17.7 mM); solubility ([2]; PEG400, organic solvent or mixture): 6940 µg/mL (≈ 17.1 mM)
21 | O=C(/C=C/c1ccccc1)Nc1ccc(S(=O)(=O)N2CCCCC2)cc1 [NP16-XL-010, 3-phenyl-N-[4-(1-piperidine-1-sulfonyl)-phenyl]acrylamide] | 1.43 | 
22 | O=C(/C=C/c1ccccc1)Nc1ccc(S(=O)(=O)N(C(=O)/C=C/c2ccccc2)c2ccccc2)cc1 [NP16-XL-036, 3-phenyl-N-{[4-(N-phenyl-3-phenylprop-2-enamido)sulfonyl]-phenyl}-acrylamide] | 3.04 | 
23 | O=C(/C=C/c1ccc(Br)cc1)Nc1ccc(S(=O)(=O)N2CCCCC2)cc1 [NP16-XL-014, 3-(4-bromophenyl)-N-[4-(1-piperidine-1-sulfonyl)phenyl]-acrylamide] | 0.74 | 
24 | O=C(/C=C/c1c(Br)cccc1Br)Nc1ccc(S(=O)(=O)N2CCCCC2)cc1 [NP16-XL-058, 3-(2,6-dibromo-phenyl)-N-[4-(1-piperidine-1-sulfonyl)phenyl]-acrylamide] | 0.16 | 
25 | O=C(/C=C/c1ccccc1)Nc1ccc(S(=O)(=O)N2CCc3ccccc3C2)cc1 [NP16-XL-032, 3-phenyl-N-[4-(3,4-dihydro-1H-isoquinoline-2-sulfonyl)phenyl]-acrylamide] | 1.17 | 
26 | O=C(/C=C/c1cccnc1)Nc1ccc(S(=O)(=O)Nc2ccccc2)cc1 [NP16-XL-042, 3-(pyridin-3-yl)-N-[(4-phenyl-sulfamoyl)phenyl]-acrylamide] | 1.44 | 
27 | O=C(Nc1ccc(S(=O)(=O)N2CCCCC2)cc1)c1cc(-c2cccs2)on1 [NP16-XL-060, 4-[2-(thiophen-5-yl)-1,5-oxazole]-N-[4-(1-piperidine-1-sulfonyl)phenyl]-amide] | 0.06 | 
28 | O=C(/C=C/c1c(F)cccc1F)Nc1ccc(S(=O)(=O)N2CCCCC2)cc1 [NP16-XL-045, 3-(2,6-difluoro-phenyl)-N-[4-(1-piperidine-1-sulfonyl)phenyl]-acrylamide] | 0.88 | 
29 | CN1CCN(S(=O)(=O)c2ccc(NC(=O)/C=C/c3ccccc3Br)cc2)CC1 [NP16-XL-052, 3-(6-bromophenyl)-N-[4-(4-methyl-1,4-piperazine-1-sulfonyl)phenyl]-acrylamide] | 3.18 | 
30 | O=C(/C=C/c1ccccc1)Nc1ccc(S(=O)(=O)N2CCCc3ccccc32)cc1 [NP16-XL-030, 3-phenyl-N-[4-(1,2,3,4--tetra-hydroquinoline-1-sulfonyl)phenyl]-acrylamide] | 1.26 | 
31 | CN1CCN(S(=O)(=O)c2ccc(NC(=O)/C=C/c3ccccc3C#N)cc2)CC1 [NP16-XL-055, 3-(6-cyanophenyl)-N-[4-(4-methyl-1,4-piperazine-1-sulfonyl)phenyl]-acrylamide] | 3.19 | 
32 | CN1CCN(S(=O)(=O)c2ccc(NC(=O)/C=C/c3ccccc3F)cc2)CC1 [NP16-XL-054, 3-(6-fluorophenyl)-N-[4-(4-methyl-1,4-piperazine-1-sulfonyl)phenyl]-acrylamide] | 2.86 | 
33 | CC(=O)Oc1ccc(/C=C/C(=O)Nc2ccc(S(=O)(=O)N3CCCCC3)cc2)cc1 [NP16-XL-011, 3-(4-acetoxyl-phenyl)-N-[4-(1-piperidine-1-sulfonyl)phenyl]-acrylamide] | 1.31 | 
34 | O=C(/C=C/c1ccccc1Br)Nc1ccc(S(=O)(=O)Nc2ccccc2)cc1 [NP16-XL-038, 3-(6-bromophenyl)-N-[(4-phenylsul-famoyl)phenyl]-acrylamide] | 3.23 | 
